Measured values taken from patent US20080188554A1, “METHODS OF TREATING AVIAN HYPERTENSION” (Regents of the University of California Office of …, priority 2006, published 2008).
Marks after values point to notes of the source that are not given here.

What was measured:
[1] = target: T1, mouse sEH (Mus musculus, UniProt P34914); conditions: compound as substrate, from Morisseau 2000; cited from earlier work
T1 sequence (P34914 1-554): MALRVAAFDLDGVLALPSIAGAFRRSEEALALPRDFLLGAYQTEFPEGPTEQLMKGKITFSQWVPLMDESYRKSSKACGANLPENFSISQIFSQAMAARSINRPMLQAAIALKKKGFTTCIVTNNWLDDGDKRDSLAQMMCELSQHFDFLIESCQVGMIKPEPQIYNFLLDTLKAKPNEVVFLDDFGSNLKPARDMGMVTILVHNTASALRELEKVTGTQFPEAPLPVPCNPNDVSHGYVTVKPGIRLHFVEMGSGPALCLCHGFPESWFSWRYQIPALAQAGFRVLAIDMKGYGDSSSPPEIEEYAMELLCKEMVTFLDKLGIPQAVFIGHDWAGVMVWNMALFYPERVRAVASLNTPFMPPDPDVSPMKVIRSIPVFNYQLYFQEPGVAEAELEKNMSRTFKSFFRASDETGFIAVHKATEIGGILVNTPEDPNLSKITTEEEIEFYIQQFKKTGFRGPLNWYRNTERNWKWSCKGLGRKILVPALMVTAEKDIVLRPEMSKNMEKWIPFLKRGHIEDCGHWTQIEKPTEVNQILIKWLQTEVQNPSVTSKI

[2] = target: Recombinant chicken sEH (Gallus gallus, UniProt Q45QT1); experiment: Non-radioactive epoxide hydrolase assay (HPLC-MS/MS), specific activity of substrates; type: biochemical; conditions: compound as substrate, 50 μM, 30° C., 10 min
Method: The trans-9,10-epoxystearate was purchased (Sigma-Aldrich). A 5 mM solution of each substrate was made in ethanol for the EETs and methanol for the epoxystearate. The substrate solution (1 μL) was added to 100 μL of enzyme preparation in sodium phosphate buffer (0.1 M, pH 7.4) containing 0.1 mg/mL of BSA ([S]final=50 μM). The enzyme was incubated with the substrate at 30° C. for 10 min, and the reaction quenched by addition of 400 μL of methanol. The products were analyzed by HPLC-MS/MS as previously described (Newman, J. W. et al., J. Lipid Res. 43:1563-1578 (2002)) with the following exceptions. A 2.0×20 mm, 3-μm Luna C18 Mercury MS column (Phenomenex, Torrance, Calif.) was used with a 350 μL/min isocratic flow of […] (vol/vol/vol) acetonitrile/water/methanol with 0.1% glacial acetic acid for 2.5 min. Assays were performed in triplicate.

[3] = target: T2, sEH (Homo sapiens, UniProt P34913); experiment: sEH inhibition, general statements on earlier tests; type: biochemical; conditions: statement in words, no method given
T2 sequence (P34913 1-555): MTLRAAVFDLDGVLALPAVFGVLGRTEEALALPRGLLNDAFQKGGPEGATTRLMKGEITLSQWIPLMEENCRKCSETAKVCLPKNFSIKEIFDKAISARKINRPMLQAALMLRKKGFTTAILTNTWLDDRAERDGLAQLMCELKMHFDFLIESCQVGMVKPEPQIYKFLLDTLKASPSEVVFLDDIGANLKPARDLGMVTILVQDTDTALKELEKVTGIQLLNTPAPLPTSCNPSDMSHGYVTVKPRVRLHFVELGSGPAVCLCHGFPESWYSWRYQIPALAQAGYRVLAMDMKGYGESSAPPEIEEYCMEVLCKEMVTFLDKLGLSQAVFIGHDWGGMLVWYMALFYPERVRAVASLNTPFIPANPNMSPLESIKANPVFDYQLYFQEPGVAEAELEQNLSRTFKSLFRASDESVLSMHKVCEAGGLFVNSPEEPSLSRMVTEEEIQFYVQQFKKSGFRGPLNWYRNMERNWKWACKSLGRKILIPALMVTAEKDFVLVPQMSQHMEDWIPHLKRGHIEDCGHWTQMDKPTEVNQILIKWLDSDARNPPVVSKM

Recombinant chicken sEH, sequence (Q45QT1 entry or part of it): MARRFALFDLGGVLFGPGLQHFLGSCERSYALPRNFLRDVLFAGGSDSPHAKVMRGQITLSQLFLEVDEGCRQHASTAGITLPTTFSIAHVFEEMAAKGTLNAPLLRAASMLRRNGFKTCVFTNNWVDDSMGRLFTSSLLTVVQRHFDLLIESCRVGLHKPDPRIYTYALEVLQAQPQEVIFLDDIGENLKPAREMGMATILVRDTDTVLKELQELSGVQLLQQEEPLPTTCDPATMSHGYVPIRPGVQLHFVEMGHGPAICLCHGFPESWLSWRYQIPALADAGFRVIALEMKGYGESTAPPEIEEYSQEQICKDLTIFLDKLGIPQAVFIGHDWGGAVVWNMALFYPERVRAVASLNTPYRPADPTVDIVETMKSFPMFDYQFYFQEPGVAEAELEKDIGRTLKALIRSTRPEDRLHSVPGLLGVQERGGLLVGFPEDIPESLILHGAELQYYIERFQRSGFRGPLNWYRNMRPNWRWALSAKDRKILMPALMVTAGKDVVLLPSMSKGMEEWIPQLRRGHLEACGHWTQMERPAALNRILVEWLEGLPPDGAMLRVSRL

Specific activity [2] | Activity as inhibitor of sEH [3] | SMILES | Specific activity [1]
3.1 ± 0.2 nmol/min/mg |  | CCCCCCCCC1OC1CCCCCCCC(=O)O (stereo not drawn) [cis-9,10-epoxystearic acid] | 1139 ± 34* nmol · min^−1 · mg^−1
 | particularly high activity | CCCCCCCCCCCCNC(=O)NC12CC3CC(CC(C3)C1)C2 [ADU, N-Adamantyl-N′-dodecyl urea] | 
